In US9499502B2, “5-substituted iminothiazines and their mono- and dioxides as BACE inhibitors, compositions, and their use” (Merck Sharp & Dohme Corp., priority 2011, dated 2016):
Read-outs that look alike come from different tables or passages of the source.

What was measured:
[1] = target: soluble human BACE1 catalytic domain (Homo sapiens (Human), UniProt P56817); assay: BACE1 HTRF FRET Assay; conditions: read-out: BACE1 Ki; Ki calculated from IC50 using the Cheng-Prusoff equation
[2] = target: purified human autoBACE-2 (Homo sapiens (Human), UniProt Q9Y5Z0); assay: BACE-2 Assay (BACE-HTRF assay); type: biochemical
Sequence of purified human autoBACE-2 (Q9Y5Z0 63-473): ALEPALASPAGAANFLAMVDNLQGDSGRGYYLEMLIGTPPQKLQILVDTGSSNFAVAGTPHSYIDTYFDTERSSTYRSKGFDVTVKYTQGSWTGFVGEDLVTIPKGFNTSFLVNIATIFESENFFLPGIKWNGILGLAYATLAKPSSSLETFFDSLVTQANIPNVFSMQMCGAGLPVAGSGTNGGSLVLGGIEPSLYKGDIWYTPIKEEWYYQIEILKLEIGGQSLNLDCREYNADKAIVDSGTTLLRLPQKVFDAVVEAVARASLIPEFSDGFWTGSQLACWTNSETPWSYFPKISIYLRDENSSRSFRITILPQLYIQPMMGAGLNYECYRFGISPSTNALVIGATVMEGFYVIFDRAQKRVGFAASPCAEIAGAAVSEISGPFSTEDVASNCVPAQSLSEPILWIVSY
Protocol: Inhibitor IC50s at purified human autoBACE-2 are determined in a time-resolved endpoint proteolysis assay that measures hydrolysis of the QSY7-[…]-Eu-amide FRET peptide substrate (BACE-HTRF assay). […] DMSO is present at 5% final concentration in the assay. Following laser excitation of sample wells at 320 nm, the fluorescence signal at 620 nm is collected for 400 ms following a 50 μs delay on a RUBYstar HTRF plate reader (BMG Labtechnologies). Raw RFU data is normalized to maximum (1.0 nM BACE/DMSO) and minimum (no enzyme/DMSO) RFU values. […] The Ki values are calculated from the IC50 using the Cheng-Prusoff equation.

[3] = Ki calculated from IC50 using the Cheng-Prusoff equation, read-out: BACE2 Ki

Sequence of soluble human BACE1 catalytic domain (P56817 75-416): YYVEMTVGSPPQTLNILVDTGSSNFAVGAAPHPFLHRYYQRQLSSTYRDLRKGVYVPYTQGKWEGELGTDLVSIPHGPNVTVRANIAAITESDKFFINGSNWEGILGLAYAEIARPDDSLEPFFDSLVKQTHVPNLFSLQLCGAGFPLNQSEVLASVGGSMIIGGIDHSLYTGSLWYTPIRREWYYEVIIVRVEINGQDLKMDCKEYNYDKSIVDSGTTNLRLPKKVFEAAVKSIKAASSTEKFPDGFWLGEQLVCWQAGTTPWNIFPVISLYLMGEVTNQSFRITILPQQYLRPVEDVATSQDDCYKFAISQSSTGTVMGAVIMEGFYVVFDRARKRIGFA

SMILES | Ki [1] | Ki [2, 3] | Ki [2]
CC1(C)C(=N)N[C@](C)(c2cc(NC(=O)c3cocn3)cc(F)c2F)CS1(=O)=O [Example 9bu] | 42 nM | 5 nM | 
COc1cnc(C(=O)Nc2cc([C@]3(C)CS(=O)(=O)C(C)(C)C(=N)N3)c(F)cc2Br)cn1 [Example 9by] | 718 nM | 2900 nM | 
CCC1C(=N)N[C@](C)(c2cc(NC(=O)c3ccc(F)cn3)ccc2F)CS1(=O)=O (stereo partly drawn) [Example 9ca] | 33 nM | 9 nM | 
CC1(C)C(=N)N[C@](C)(c2nc(NC(=O)c3ccc(Cl)cn3)ccc2F)CS1(=O)=O [Example 9cc] | 13.7 nM | ≤ 10 nM | 
CC1(C)C(=N)N[C@](C)(c2nc(NC(=O)c3ccc(C(F)(F)F)cn3)ccc2F)CS1(=O)=O [Example 9cf] | 25.7 nM | 40 nM | 
COc1cnc(C(=O)Nc2ccc(F)c([C@]3(C)CS(=O)(=O)C(C)(C)C(=N)N3)n2)cn1 [Example 9cg] | 94.2 nM | 85 nM | 
COc1ccc(C(=O)Nc2ccc(F)c([C@]3(C)CS(=O)(=O)C(C)(C)C(=N)N3)n2)nn1 [Example 9ci] | 219 nM | 44 nM | 
CC1(C)C(=N)N[C@](C)(c2nc(NC(=O)c3cnc(Br)cn3)ccc2F)CS1(=O)=O [Example 9ck] | 21.7 nM | ≤ 10 nM | 
COc1cnc(C(=O)Nc2ccc(F)c([C@]3(C)CS(=O)(=O)[C@](C)(C4CC4)C(=N)N3)c2)cn1 [Example 9cq-b] | 96.7 nM | 11 to 100 nM | 
COc1cccc2cc(C(=O)Nc3ccc(F)c([C@]4(C)CS(=O)(=O)[C@@](C)(CC5CCOCC5)C(=N)N4)c3)[nH]c12 [Example 9cu-a] | 46.7 nM | 11 to 100 nM | 
C[C@@]1(c2ccccn2)C(=N)N[C@](C)(c2cc(NC(=O)c3ccc(F)cn3)ccc2F)CS1(=O)=O [Example 9cv-b] | 187 nM | 11 to 100 nM | 
C[C@@]1(c2ccccn2)C(=N)N[C@](C)(c2cc(NC(=O)c3ccc(Cl)cn3)ccc2F)CS1(=O)=O [Example 9cw-b] | 72.7 nM | 11 to 100 nM | 
COc1ccc(C(=O)Nc2ccc(F)c([C@]3(C)CS(=O)(=O)[C@](C)(c4ccccn4)C(=N)N3)c2)nc1 [Example 9cx-b] | 282 nM | 101 to 700 nM | 
COc1cnc(C(=O)Nc2ccc(F)c([C@]3(C)CS(=O)(=O)[C@@](C)(c4ccccn4)C(=N)N3)c2)cn1 [Example 9cy-a] | 6.9 nM | 11 to 100 nM | 
COc1cnc(C(=O)Nc2ccc(F)c([C@]3(C)CS(=O)(=O)[C@](C)(c4ccccn4)C(=N)N3)c2)cn1 [Example 9cy-b] | 209 nM | 101 to 700 nM | 
C[C@@]1(c2cc(NC(=O)c3ccc(C(F)(F)F)cn3)ccc2F)CS(=O)(=O)[C@@](C)(c2ccccn2)C(=N)N1 [Example 9cz-a] | 6 nM | 11 to 100 nM | 
C[C@@]1(c2ccccn2)C(=N)N[C@](C)(c2cc(NC(=O)c3ccc(C(F)(F)F)cn3)ccc2F)CS1(=O)=O [Example 9cz-b] | 181 nM | 101 to 700 nM | 
C[C@@]1(c2cccc(F)c2)C(=N)N[C@](C)(c2cc(NC(=O)c3ccc(F)cn3)ccc2F)CS1(=O)=O [Example 9da-b] | 198 nM | 11 to 100 nM | 
COc1ccc(C(=O)Nc2ccc(F)c([C@]3(C)CS(=O)(=O)[C@@](C)(c4cccc(F)c4)C(=N)N3)c2)nc1 [Example 9dc-a] | 3 nM | 11 to 100 nM | 
COc1cnc(C(=O)Nc2ccc(F)c([C@]3(C)CS(=O)(=O)[C@](C)(c4cccc(F)c4)C(=N)N3)c2)cn1 [Example 9dd-b] | 228 nM | 101 to 700 nM | 
C[C@@]1(c2cccc(F)c2)C(=N)N[C@](C)(c2cc(NC(=O)c3ccc(C(F)(F)F)cn3)ccc2F)CS1(=O)=O [Example 9de-b] | 175 nM | 101 to 700 nM | 

SMILES | Ki [1] | Ki [2, 3] | Ki [2]
C[C@@]1(c2ccc(F)cc2)C(=N)N[C@](C)(c2cc(NC(=O)c3ccc(F)cn3)ccc2F)CS1(=O)=O [Example 9df-b] | 165 nM |  | 11 to 100 nM
COc1cnc(C(=O)Nc2ccc(F)c([C@]3(C)CS(=O)(=O)[C@](C)(c4ccc(F)cc4)C(=N)N3)c2)cn1 [Example 9dg-b] | 186 nM | 101 to 700 nM | 
COc1cnc(C(=O)Nc2ccc(F)c([C@]3(C)CS(=O)(=O)[C@](C)(CC4CC4)C(=N)N3)c2)cn1 [Example 9dk-b] | 42.6 nM | 11 to 100 nM | 
C[C@@]1(c2cc(NC(=O)c3ccc(C(F)(F)F)cn3)ccc2F)CS(=O)(=O)[C@](C)(CC2CC2)C(=N)N1 [Example 9dl-b] | 33.2 nM | 11 to 100 nM | 
C=CC[C@]1(C)C(=N)N[C@](C)(c2cc(NC(=O)c3cnc(OC)cn3)ccc2F)CS1(=O)=O [Example 9dm-b] | 33.6 nM | 11 to 100 nM | 
C[C@@]1(c2cc(NC(=O)c3ccc(F)cn3)ccc2F)CS(=O)(=O)[C@](C)(CC(F)(F)F)C(=N)N1 [Example 9dp-b] | 74.5 nM | 11 to 100 nM | 
COc1ccc(C(=O)Nc2ccc(F)c([C@]3(C)CS(=O)(=O)[C@](C)(CC(F)(F)F)C(=N)N3)c2)nc1 [Example 9dq-b] | 54.3 nM | 11 to 100 nM | 
COc1cnc(C(=O)Nc2ccc(F)c([C@]3(C)CS(=O)(=O)[C@](C)(CC(F)(F)F)C(=N)N3)c2)cn1 [Example 9dr-b] | 137 nM | 101 to 700 nM | 
C[C@@]1(C2CCC2)C(=N)N[C@](C)(c2cc(NC(=O)c3ccc(F)cn3)ccc2F)CS1(=O)=O [Example 9dv-b] | 304 nM | 11 to 100 nM | 
C[C@@]1(C2CCC2)C(=N)N[C@](C)(c2cc(NC(=O)c3ccc(Cl)cn3)ccc2F)CS1(=O)=O [Example 9dw-b] | 66.3 nM | 11 to 100 nM | 
COc1ccc(C(=O)Nc2ccc(F)c([C@]3(C)CS(=O)(=O)[C@](C)(C4CCC4)C(=N)N3)c2)nc1 [Example 9dx-b] | 307 nM | 101 to 700 nM | 
COc1cnc(C(=O)Nc2ccc(F)c([C@]3(C)CS(=O)(=O)[C@](C)(C4CCC4)C(=N)N3)c2)cn1 [Example 9dy-b] | 499 nM | 101 to 700 nM | 
C[C@@]1(C2CCC2)C(=N)N[C@](C)(c2cc(NC(=O)c3ccc(C(F)(F)F)cn3)ccc2F)CS1(=O)=O [Example 9dz-b] | 123 nM | 101 to 700 nM | 
CC(C)[C@]1(C)C(=N)N[C@](C)(c2cc(NC(=O)c3ccc(F)cn3)ccc2F)CS1(=O)=O [Example 9ea-b] | 224 nM | 11 to 100 nM | 
COc1ccc(C(=O)Nc2ccc(F)c([C@]3(C)CS(=O)(=O)[C@](C)(C(C)C)C(=N)N3)c2)nc1 [Example 9eb-b] | 257 nM | 101 to 700 nM | 
COc1cnc(C(=O)Nc2ccc(F)c([C@]3(C)CS(=O)(=O)[C@@](C)(C(C)C)C(=N)N3)c2)cn1 [Example 9ec-a] | 14.9 nM | 11 to 100 nM | 
COc1cnc(C(=O)Nc2ccc(F)c([C@]3(C)CS(=O)(=O)[C@](C)(C(C)C)C(=N)N3)c2)cn1 [Example 9ec-b] | 522 nM | 101 to 700 nM | 
CC1(C)C(=N)N[C@](C)(c2cc(NC(=N)c3ncc(F)cc3F)ccc2F)CS1(=O)=O [Example 9ef] | 989 nM | 218 nM | 
Cc1nnc(C(=O)Nc2ccc(F)c([C@]3(C)CS(=O)(=O)C(C)(C)C(=N)N3)c2)o1 [Example 9i] | 185 nM | 49 nM | 
COc1cnc(C(=O)Nc2cc(F)c(F)c([C@]3(C)CS(=O)(=O)C(C)(C)C(=N)N3)c2)cn1 [Example 9n] | 6.6 nM | 12 nM | 
CC1(C)C(=N)N[C@](C)(c2cc(NC(=O)c3ccc(C(F)(F)F)cn3)cc(Cl)c2F)CS1(=O)=O [Example 9v] | 9.6 nM | 13 nM | 
